Measurements taken from US8207344B2, “GPR119 agonists” (Eli Lilly and Company, priority 2009, dated 2012).

What was measured:
[1] = tested on: Diet-Induced Obese (DIO) mice; test: Chronic treatment of Diet-Induced Obese (DIO) mice; assay type: in vivo, C57/BL6 mice; details: 30 mg/kg once daily, 3 weeks
Description: DIO male C57/BL6 mice are maintained on a calorie-rich diet and have free access to food and water for at least 2 weeks before randomization into groups by weight (n=8) and treatment. Animals are individually housed in a temperature-controlled (24° C.) facility with 12 hour light, 12 hour dark cycle. Body weights range from 34-40 g. Mice are administrated once daily vehicle (1% HEC), 30 mg/kg GPR119 agonist, 30 mg/kg DPPIV inhibitor or a combination of 30 mg/kg GPR119 agonist and 30 mg/kg DPPIV inhibitor. Treatment continues for 3 weeks. Food and body weights are recorded daily before dark photoperiod. Cumulative body weight change is calculated as the daily body weight minus body weight before treatment for each animal and presented as an average for the group. Food intake is measured daily for each animal and combined with the total amount of food consumed by that animal from all previous days to yield cumulative food intake, which is then averaged for the group. At the end of the study OGTT is performed after overnight fasting.

GLUTag cells = test: Glucagon-like peptide 1 secretion in GLUTag cells; assay type: cell-based, murine; details: Mus musculus, 2 h at 37 C, 5 mM glucose, read-out: EC50 (agonist concentration that gives 50% increase in GLP-1)
Description: Effects of GPR119 agonists on glucagon-like peptide 1 (GLP-1) secretion are determined in vitro in GLUTag cells. GLUTag cells are an immortalized murine intestinal enteroendocrine cell line that express the preproglucagon gene and secrete GLP-1 in a regulated manner (Brubaker P L, Schloos J, Drucker D J. Regulation of glucagon-like peptide-1 synthesis and secretion in the GLUTag enteroendocrine cell line. Endocrinology. 1998 139:4108-14). To measure GLP-1 secretion, 15,000 cells/well are seeded in 96-well-plate and incubated for 3 days in DMEM supplemented with 10% FBS and 1% Glutamine. On the day of the experiment, cells are washed twice with the incubation buffer, EBSS supplemented with 5 mM glucose and 0.1% BSA. 150 μL of the incubation buffer containing test compounds is added to each well and cells are incubated at 37° C. for 2 h. After incubation, the supernatant is collected and filtered using 96-well-filter-plates. GLP-1 content in the filtrate is determined with the Mouse/Rat Total GLP-1 Assay (Meso Scale Discovery). The potency of the GPR119 agonists to stimulate GLP-1 secretion is determined as the agonist concentration that gives 50% increase in GLP-1 (EC50).

human GPR119 = biological target: T1, human GPR119 (Homo sapiens, UniProt Q8TDV5); test: Human GPR119 activity assay (cAMP HTRF in 293 T-REx cells expressing hGPR119); assay type: cell-based; details: 293 T-REx cells expressing hGPR119, cAMP HTRF, 1 h incubation; read-out: EC50 (agonist concentration that gives 50% activation of the hGPR119 mediated cAMP increase)
T1 construct: expressed in transfected cells
T1 sequence (Q8TDV5 1-335): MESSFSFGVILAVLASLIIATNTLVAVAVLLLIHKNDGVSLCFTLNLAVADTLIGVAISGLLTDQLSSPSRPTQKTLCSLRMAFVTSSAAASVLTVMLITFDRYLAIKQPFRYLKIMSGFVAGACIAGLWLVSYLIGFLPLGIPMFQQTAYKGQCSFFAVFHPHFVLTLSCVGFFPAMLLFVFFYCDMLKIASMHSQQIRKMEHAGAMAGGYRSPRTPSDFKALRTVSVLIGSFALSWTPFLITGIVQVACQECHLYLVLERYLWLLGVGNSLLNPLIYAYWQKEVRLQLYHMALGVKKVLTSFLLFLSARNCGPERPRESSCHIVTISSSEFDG
Description: A stable cell line expressing human GPR119 off an inducible promoter is generated in 293 T-REx™ cells (Invitrogen). T-REx™ (Tetracycline-Regulated Expression) cell line stably expresses the tetracycline repressor protein and, therefore, allow for inducible expression of the gene of interest (GPR119) with doxycycline. Agonists to the human GPR119 receptor are characterized by measuring increases in the cAMP levels in 293 T-REx™ cells expressing hGPR119. 10,000 cells/well are seeded into a 96-well plate and cultured for 24 h in DMEM supplemented with 10% fetal bovine serum, 15 μg/mL Blasticidin and 200 μg/mL Hygromycin B. Next day, cells are stimulated with 1 ng/mL Doxycycline in DMEM with no further addition of Hygromycin B and Blasticidin. cAMP assay is performed after 18 h incubation with doxycycline. cAMP is determined using the cAMP HiRange HTRF assay (Cisbo International). Cells are washed with PBS and pre-incubated for 15 min with PBS supplemented with 2 mM glucose, 0.25 mM IBMX and 0.1% BSA. Test compounds diluted in the pre-incubation buffer are added and cells are further incubated at room temperature for 1 h. Incubation is stopped by addition of HTRF reagents diluted in the lysis buffer, followed by incubation for 1 h and measurements of fluorescence at […]. The potency of the agonists is determined as the agonist concentration that gives 50% activation of the hGPR119 mediated cAMP increase (EC50).

total GIP = test: Mouse Gastric Inhibitory Polypeptide (GIP) assay; assay type: in vivo; details: male C57BL/6 mice, 0.5-6 h
Description: Male C57BL/6 mice (8-10 weeks of age, n=20/dose level, n=5/time point) are fasted overnight (16 hr), weighed the following morning, and then orally dosed with vehicle (1% HEC) or various doses of test article at 5 mL/kg. Animals are euthanized by CO2 asphyxiation for 1 minute, and then blood is collected by cardiac puncture at various times (0.5, 1.5, 3, and 6 h post compound dose) into EDTA plasma tubes containing 10 μL/mL DPP4 inhibitor (Millipore, DPP4-010) and 1.1×10^5 KIU/mL aprotinin. Blood samples are kept on ice until plasma is separated by centrifugation at 3000×g for 5 min. Resulting plasma samples are placed into 96-well plates and stored at −20° C. until analyzed. Measurements of total GIP (measured by Millipore kit EZRMGIP-55K) are performed for each time-point. For each treatment group, the AUC for GIP is determined by applying the trapezoid rule to the timepoint-specific average GIP levels. Potencies were estimated using piecewise linear interpolation across the collection of calculated GIP AUCs above vehicle from a dose response study. Compound potency is defined as the dose and/or concentration of compound that yielded an increase of 350 pg*hr/mL above the vehicle group GIP AUC over the timecourse of the experiment.

[2] = Oral bioavailability in Sprague-Dawley rats; assay type: in vivo; details: male, rat, plasma, 1 mg/kg IV, 3 mg/kg oral gavage
Source text: (§1) Methods for accessing oral bioavailability are well appreciated in the art. One such reference is Medicinal Research Reviews Vol 21 No. 5 382-396 (2001). The oral bioavailability of compounds of the present invention may be estimated essentially as follows.
(§2) Cohorts of three 250-400 gram male Sprague-Dawley rats or approximately 10 kg Beagle dogs (female or male) are used. […] Dogs are IV administered the compounds by cannulated cephalic vein and blood collections are by jugular vein. Animals are first IV dosed at 1 mg/kg and blood samples (0.1 to 0.2 mL) are then collected using EDTA as an anticoagulant at 0.0830, 0.25, 0.50, 1, 2, 4, 8, 12, and 24 h. After at least two days and overnight fasting, the animals are dosed at 3 mg/kg by oral gavage. Blood samples (0.1 to 0.2 mL) are then collected using EDTA as an anticoagulant at 0.25, 0.50, 1, 2, 4, 6, 8, 12, and 24 h. During the course of a study the total of blood (mL) collected is not to exceed 1% of total body weight in grams.
(§3) Compound plasma concentrations are measured by LC/MS/MS assays. Data are then analyzed using standard non-compartmental pharmacokinetic analysis. Oral bioavailability is calculated as: (AUC0-inifinity, oral/AUC0-inifinity, IV)×(Dose, IV./Dose, oral)×100%

plasma glucose = test: Mouse Oral Glucose Tolerance Test (OGTT); assay type: in vivo, C57BL/6 mice
Description: Normal C57BL/6 mice are fasted overnight, randomized into groups (n=6) and orally dosed with vehicle (1% HEC, 0.25% tween 80, 0.05% antifoam) or 0.9, 2, 6 and 18 mg/kg GPR119 agonist suspended in vehicle. 30 minutes after the compound is administered, mice are dosed orally with a 50% dextrose solution at 3 g/kg. At various times (0, 20, 40, or 60 minutes post glucose), the mice are restrained in cotton gloves or paper towels and 1 mm or less of the tail is cut. A small drop of blood is placed onto Accu-Chek® glucometers (Roche model 22-044217) for glucose measurements. Three glucometers are used to read glucose in each collected sample, with the median value being reported as the final glucose value. Area under the plasma glucose curve (glucose AUC) is calculated for each group and the percentage decrease in the glucose AUC versus the control group is used as a measure of efficacy of the compound to decrease plasma glucose.

[3] = Oral bioavailability in Beagle dogs; assay type: in vivo; details: dog, plasma, 1 mg/kg IV, 3 mg/kg oral gavage
Source text: as §1, §2, §3

[4] = oral dosing 30 min before 3 g/kg dextrose, normal C57BL/6 mice

Which results are given for `N[C@@H](CC(=O)N1CCn2c(nnc2C(F)(F)F)C1)Cc1cc(F)c(F)cc1F` [Sitagliptin, sitagliptin, reference compound]?
body weight [1]: did not alter; food intake [1]: did not alter

For `CC(F)(F)CN1CCC(COc2ccc(C3=CCN(S(C)(=O)=O)CC3)cc2)CC1` [Example 9, 4-{4-[1-(2,2-Difluoro-propyl)-piperidin-4-ylmethoxy]-phenyl}-1-methanesulfonyl-1,2,3,6-tetrahydro-pyridine], which EC50 (GLUTag cells) is on record?
Its EC50 is 36.8 nM.

With `CC(C)(F)CN1CCC(COc2ccc(C3=CCN(S(C)(=O)=O)CC3)cc2F)CC1` [Example 7, 4-{3-Fluoro-4-[1-(2-fluoro-2-methyl-propyl)-piperidin-4-ylmethoxy]-phenyl}-1-methanesulfonyl-1,2,3,6-tetrahydro-pyridine] as the compound, how does the EC50 (human GPR119) read?
Its EC50 is 2.13 nM.

Which results are given for `CS(=O)(=O)N1CC=C(c2ccc(OCC3CCN(CC4(C(F)(F)F)CC4)CC3)cc2)CC1` [Example 10, 1-Methanesulfonyl-4-{4-[1-(1-trifluoromethyl-cyclopropylmethyl)-piperidin-4-ylmethoxy]-phenyl}-1,2,3,6-tetrahydro-pyridine]?
EC50 (human GPR119): 0.95 nM; increase in GIP AUC over vehicle (total GIP; 10 mg/kg oral dose): 762 pg·h/mL; bioavailability [2]: 53%

With `CC(C)(F)CN1CCC(COc2ccc(C3=CCN(S(C)(=O)=O)CC3)nc2)CC1` [Example 6, 5-[1-(2-Fluoro-2-methyl-propyl)-piperidin-4-ylmethoxy]-1′-methanesulfonyl-1′,2′,3′,6′-tetrahydro-[2,4′]bipyridinyl] as the compound, how does the EC50 (GLUTag cells) read?
Its EC50 is 62.7 nM.

And the ED50 (plasma glucose; Mus musculus, oral, doses 0.9, 2, 6 and 18 mg/kg, normal C57BL/6 mice, read-out: ED50 (dose which produces a 50% decrease in glucose area under the curve))?
The ED50 was 0.4 mg/kg.

What about the glucose tolerance (plasma glucose; [4]) of the same compound?
Its glucose tolerance is “improved glucose tolerance”.

And the postprandial plasma glucose (plasma glucose; [4])?
The postprandial plasma glucose was “significantly decreased”.

And the fasting plasma glucose (plasma glucose; oral dosing, normal C57BL/6 mice fasted overnight)?
The fasting plasma glucose was “did not influence”.

And the bioavailability [3]?
The bioavailability was 90%.

And the EC50 (human GPR119)?
The EC50 was 0.95 nM.

What about the “increase in GIP AUC over vehicle” value (total GIP; 1.6 mg/kg oral dose) of the same compound?
Its value is 422 pg·h/mL.

What about the body weight [1] of the same compound?
Its body weight is “mild decrease”.

And the food intake [1]?
The food intake was “mild decrease”.

What about the plasma glucose levels ([1]; OGTT at end of study) of the same compound?
Its plasma glucose levels is “did not significantly modify”.

With `CC(Oc1ccc(C2=CCN(S(C)(=O)=O)CC2)cc1)C1CCN(CC(C)(C)F)CC1` (single isomer, unassigned) [Example 8, 4-(4-{1-[1-(2-Fluoro-2-methyl-propyl)-piperidin-4-yl]-ethoxy}-phenyl)-1-methanesulfonyl-1,2,3,6-tetrahydro-pyridine] as the compound, how does the EC50 (human GPR119) read?
Its EC50 is 1.1 nM.

For `CC(C)(CN1CCC(COc2ccc(C3=CCN(S(C)(=O)=O)CC3)nc2)CC1)C(F)(F)F` [Example 3, 1′-Methanesulfonyl-5-[1-(3,3,3-trifluoro-2,2-dimethyl-propyl)-piperidin-4-ylmethoxy]-1′,2′,3′,6′-tetrahydro-[2,4′]bipyridinyl], which “increase in GIP AUC over vehicle” value (total GIP; 10 mg/kg oral dose) is on record?
The value was 762 pg·h/mL.

For `CS(=O)(=O)N1CC=C(c2ccc(OCC3CCN(CC4(F)CCCC4)CC3)cc2)CC1` [Example 1, 4-{4-[1-(1-Fluoro-cyclopentylmethyl)-piperidin-4-ylmethoxy]-phenyl}-1-methanesulfonyl-1,2,3,6-tetrahydro-pyridine], which EC50 (human GPR119) is on record?
The EC50 was 4.61 nM.
